Assay results reported in US20240245806A1, “TREATMENT OF NEURODEGENERATIVE DISEASE USING CSA- AND INDY-TYPE COMPOUNDS” (BROWN UNIVERSITY, priority 2021, published 2024).
“Also recorded” adds a separate entry of the source.

Assays:
[1] = test system: transplant patients; details: all age groups above 65; cited from earlier work
[2] = test system: zebrafish embryos and larvae; assay: Developmental exposure (2-3, 3-4 or 4-5 dpf) of zebrafish to modulators of calcineurin signaling, behavior imaged at 5 dpf; type: in vivo; details: for early activity (first hour): imaged 5 dpf
Experimental: Zebrafish. Adult wild type zebrafish (Danio rerio) are maintained at Brown University as a genetically-diverse outbred strain in a mixed male and female population. Zebrafish embryos were collected and grown to larval stages as described previously. Thorn et al., Sci Rep 9, 13989 (2019). Embryos from 0-3 days post-fertilization (dpf) and larvae from 3-5 dpf were kept on a 12 hour light/12 hour dark cycle at 28.5° C. in 2 L culture trays with egg water, containing 60 mg/L sea salt (Instant Ocean) and 0.25 mg/L methylene blue in deionized water. Zebrafish embryos and larvae were randomly assigned to different experimental groups prior to experimental manipulation. The sex of embryos and larvae cannot be determined at such early stages because zebrafish use elusive polygenic factors for sex determination, and both males and females have juvenile ovaries between 2.5 and 4 weeks of development. Liew et al., Brief Funct Genomics 13(2), 172-187 (2014). Zebrafish larvae were imaged at 5 dpf when they are approximately 4 mm long, display a range of locomotor behaviors and consume nutrients available in the yolk sac. Clift et al., Zebrafish 11(5), 455-461 (2014).
Pharmacological treatments. Zebrafish embryos and larvae were treated with 10 μM CsA (cyclosporin A, Enzo Life Sciences), 1 μM FK506 (tacrolimus, Enzo Life Sciences), 1 μM rapamycin (Santa Cruz Biotechnology), 5 μM proINDY (Tocris Bioscience) or co-treatments of either 10 μM CsA+5 μM proINDY or 1 μM FK506+5 μM proINDY. […] Clift et al., Behav Brain Res, 282, 117-124 (2015). […] Robinson et al., J Appl Toxicol 37(12), 1438-1447 (2017). […] All administered compounds were diluted in egg water from 1000× stocks dissolved in dimethyl sulfoxide (DMSO). The corresponding DMSO concentration (1 μl DMSO/ml egg water) was used as a vehicle control. Embryos and larvae were treated during one of the following developmental stages: 2-3, 3-4, or 4-5 dpf. The embryos and larvae were treated in 10 cm Petri dishes for 24 hours, rinsed three times with egg water, and then transferred to new Petri dishes with egg water. Larvae that were treated from 4-5 dpf were rinsed and kept in egg water for 3 hours prior to imaging, typically from 10 am to 1 pm. All treatment groups were imaged at 5 dpf in egg water. For imaging, larvae were transferred to white 96-well ProxiPlates (PerkinElmer, 6006290) and were imaged for 3 hours, typically from 1-4 pm (FIG. 12).
Imaging of zebrafish larvae. Zebrafish larvae were imaged in a 384-well imaging system as described previously. Thorn et al., Sci Rep 9, 13989 (2019). Briefly, four 96-well ProxiPlates were placed on a glass stage inside a temperature-controlled cabinet, set at 28.5° C. The upper shelf of the cabinet holds a high-resolution camera (18-megapixel Canon EOS Rebel T6 with an EF-S 55-250 mm f/4.0-5.6 IS zoom lens), connected to a continuous power supply (Canon ACK-E10 AC Adapter) and controlled by a laptop computer. Images are acquired using Canon's Remote Capture software (EOS Utility, version 3), which is included with the camera. Every 6 seconds, the camera acquires a high-resolution image of larvae in the microplates (FIG. 12). Two small speakers (OfficeTec USB Computer Speakers Compact 2.0 System) are located speaker-side down on the glass stage. Speakers were connected by USB to the laptop computer and set to maximum volume (85 dBA).
Behavioral assay. Larval behaviors were imaged for 3 hours, as described previously. Thorn et al., Sci Rep 9, 13989 (2019). […] The PowerPoint started with a light background for 60 minutes without visual or acoustic stimuli, followed by 80 minutes with visual stimuli, 10 minutes without stimuli, and 30 minutes with acoustic stimuli (FIG. 12). Larvae were not exposed to visual stimuli and acoustic stimuli at the same time. The visual stimuli consisted of a series of lines that moved upwards or downwards in the microplates, in a horizontal plane. […]

[3] = test system: zebrafish larvae; assay: Acute exposure of 5 dpf zebrafish larvae to modulators of calcineurin signaling, automated analysis of behavior; type: in vivo, Danio rerio; details: vs DMSO
Experimental: Zebrafish larvae were treated at 5 dpf with various modulators of calcineurin signaling, starting 3 hours before imaging. The larvae were then imaged for a total of 3 hours using a behavioral assay with various visual and acoustic stimuli (FIG. 6). The behavioral assay started with a 1-hour period without stimuli, followed by 80 minutes with visual stimuli, 10 minutes without visual or acoustic stimuli, and 30 minutes with acoustic stimuli. Values of activity (% move) and position (% up) were averaged in individual larvae during 10-minute periods, for a total of 18 periods. These values were subsequently averaged between larvae in the same treatment group. We examined a total of 10 treatment groups. For clarity, only 3 treatment groups were graphed (FIG. 6), but all 10 treatment groups were analyzed in detail as shown in subsequent figures. […] The assay provides quantitative information on activity, visually-guided behaviors and acoustic startle responses.
To determine if larval zebrafish behavior is affected by modulation of calcineurin signaling, we imaged 5 day-old larvae in the following 10 treatment groups: 10 μM cyclosporine A (CsA), 1 μM tacrolimus (FK506), 5 or 10 μM proINDY, a combination of CsA+5 or 10 μM proINDY, or a combination of FK506+5 or 10 μM proINDY, DMSO as a vehicle control, and 1 μM rapamycin as a control for target specificity. Rapamycin and FK506 are both macrolide immunosuppressants with similar structures, however, rapamycin affects Target of Rapamycin (TOR) signaling instead of calcineurin signaling. Vellanki et al., Front Mol Biosci 7, 588913 (2020). The concentrations of CsA, FK506 and rapamycin were selected based on prior studies in zebrafish embryos and larvae. Clift et al., Behav Brain Res 282, 117-124 (2015). The two concentrations of proINDY, a membrane-permeable form of INDY (inhibitor of DYRK), were selected based on studies in cell lines and Xenopus embryos. Ogawa et al., Nat Commun 1, 86 (2010).
The research project has been conducted in accordance with local and federal guidelines for ethical and humane use of animals and has been reviewed and approved by the Brown University Institutional Animal Care and Use Committee. Zebrafish (Danio rerio) embryos were collected and grown to larval stages as previously described. Thorn et al., Sci Rep 9, 13989 (2019). Adult wild-type zebrafish are maintained at Brown University as a genetically-diverse outbred strain in a mixed male and female population. Zebrafish embryos from 0-3 days post-fertilization (dpf) and zebrafish larvae from 3-5 dpf were maintained at 28.5° C. in 2 L culture trays with egg water, containing 60 mg/L sea salt (Instant Ocean) and 0.25 mg/L methylene blue in deionized water. Embryos and larvae were kept on a 12 hour light/12 hour dark cycle and were randomly assigned to different experimental groups prior to experimental manipulation. The sex of embryos and larvae cannot be determined at such early stages because zebrafish use elusive polygenic factors for sex determination, and both males and females have juvenile ovaries between 2.5 and 4 weeks of development. Zebrafish larvae were imaged at 5 dpf when the larvae display a range of locomotor behaviors and consume nutrients available in the yolk sac. Larvae are approximately 4 mm long at the 5 dpf stage.
Cyclosporine (cyclosporin A, Enzo Life Sciences), FK506 (tacrolimus, Enzo Life Sciences), rapamycin (Santa Cruz Biotechnology) and proINDY (Tocris Bioscience) were diluted in egg water from 1000× stocks dissolved in dimethyl sulfoxide (DMSO). DMSO (1 μl/ml DMSO) was added to the single treatments and the corresponding DMSO concentration was used as a vehicle control for all solutions. Larvae were exposed at 5 dpf to treatment solutions or DMSO for a total of 6 hours. Larvae were first treated in a Petri dish for 2 hours, transferred with the treatment solution to white 96-well ProxiPlates (PerkinElmer, 6006290) for 1 hour, and then imaged in the treatment solution for 3 hours. […]

[4] = 5 dpf acute exposure, 10 μM CsA, 1 μM FK506, 1 μM rapamycin, proINDY

Structure (SMILES): C=CC[C@@H]1/C=C(\C)C[C@H](C)C[C@H](OC)[C@H]2O[C@@](O)(C(=O)C(=O)N3CCCC[C@H]3C(=O)O[C@H](/C(C)=C/[C@@H]3CC[C@@H](O)[C@H](OC)C3)[C@H](C)[C@@H](O)CC1=O)[C@H](C)C[C@@H]2OC [FK506, tacrolimus]
- development of Alzheimer's disease in treated transplant patients [1]: rarely develops
- startle responses (20-second interval) ([2]; all exposure groups, vs DMSO): decrease startle responses
- OMR Blue ([2]; exposure 2-3 dpf): decrease in OMR Blue
- OMR Green ([2]; exposure 2-3 dpf): decrease in OMR Green
- OMR RGB ([2]; exposure 2-3 dpf): decrease in OMR RGB
- behavioral profile ([2]; exposure 2-3 dpf): hyperactivity, low habituation, and low optomotor responses
- habituation to acoustic stimuli (1 second interval) ([2]; exposure 2-3 dpf): reduced larval habituation
- startle responses (20-second interval) ([2]; exposure 2-3 dpf): strongly reduced
- early activity (first hour) ([2]; exposure 2-3 dpf): hyperactivity
- habituation to acoustic stimuli (1 second interval) ([2]; exposure 3-4 dpf): reduced larval habituation
- late activity (period 15) ([2]; exposure 3-4 dpf): substantial increases in activity
- startle responses (20-second interval) ([2]; exposure 3-4 dpf): reduced
- early activity (first hour) ([2]; exposure 3-4 dpf): hyperactivity
- OMR Fast Red ([2]; exposure 4-5 dpf): decrease in OMR Fast Red
- OMR Green ([2]; exposure 4-5 dpf): decrease in OMR Green
- excitability ([2]; exposure 4-5 dpf): increases in excitability
- habituation to acoustic stimuli (1 second interval) ([2]; exposure 4-5 dpf): increased larval habituation
- late activity (period 15) ([2]; exposure 4-5 dpf): substantial increases in activity
- optomotor response (OMR) ([3]; 5 dpf acute exposure): decreased optomotor responses
- early activity (first hour of imaging) [3, 4]: increased early larval activity; also recorded: significant increase in both early and late activity
- late activity (period 15) [3, 4]: increased activity; also recorded: significant increase in both early and late activity
- activity ([3]; 5 dpf acute exposure, 10 μM CsA, 1 μM FK506, proINDY 5 or 10 μM): increased activity
- excitability (acoustic stimuli at 1-second intervals) ([3]; 5 dpf acute): increase in excitability; also recorded: increased excitability
- habituation to acoustic stimuli at 1-second intervals ([3]; 5 dpf acute): decreased habituation
- optomotor response to red lines ([3]; 5 dpf acute, proINDY 5 μM): decreased optomotor responses
